Results: PubChem BioAssay AID1845198 (Molecular Pharmacology Branch, DTP, NCI, 2023)

Test system: 425362-245-T-J1 tumor spheroids, viability % test/control
Experiment: Anticancer human tumor 425362-245-T-J1 patient-derived melanoma cell line growth inhibition
Conditions: spheroids with HUVEC and MSC; for IC50: curve of first compound; for viability, T/C: stronger effect = lower value
Summary of the method: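 Single agents and combinations were tested on spheroids built from tumor cells plus HUVEC and hMSC, at half-log dilutions starting at or near clinical Cmax, else 10 microM; final DMSO 0.25% (v/v).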

[1] = second compound 30 pM, first compound 0.00949 µM
[2] = second compound 30 pM, first compound 0.03 µM
[3] = second compound 30 pM, first compound 0.0949 µM
[4] = second compound 30 pM, first compound 0.3 µM
[5] = second compound 30 pM, first compound 0.949 µM
[6] = second compound 30 pM, first compound 3 µM
[7] = second compound 94.9 pM, first compound 0.00949 µM
[8] = second compound 94.9 pM, first compound 0.03 µM
[9] = second compound 94.9 pM, first compound 0.0949 µM
[10] = second compound 94.9 pM, first compound 0.3 µM
[11] = second compound 94.9 pM, first compound 0.949 µM
[12] = second compound 94.9 pM, first compound 3 µM
[13] = second compound 0.0003 µM, first compound 0.00949 µM
[14] = second compound 0.0003 µM, first compound 0.03 µM
[15] = second compound 0.0003 µM, first compound 0.0949 µM
[16] = second compound 0.0003 µM, first compound 0.3 µM
[17] = second compound 0.0003 µM, first compound 0.949 µM
[18] = second compound 0.0003 µM, first compound 3 µM
[19] = second compound 0.000949 µM, first compound 0.00949 µM
[20] = second compound 0.000949 µM, first compound 0.03 µM
[21] = second compound 0.000949 µM, first compound 0.0949 µM
[22] = second compound 0.000949 µM, first compound 0.3 µM
[23] = second compound 0.000949 µM, first compound 0.949 µM
[24] = second compound 0.000949 µM, first compound 3 µM
[25] = second compound 0.003 µM, first compound 0.00949 µM
[26] = second compound 0.003 µM, first compound 0.03 µM
[27] = second compound 0.003 µM, first compound 0.0949 µM
[28] = second compound 0.003 µM, first compound 0.3 µM
[29] = second compound 0.003 µM, first compound 0.949 µM
[30] = second compound 0.003 µM, first compound 3 µM
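Note: spheroids exposed to agents for 7 days.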
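Throughout, for viability, T/C: 100% = DMSO vehicle control viability.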

SMILES | IC50 (second compound 30 pM) [µM] | IC50 (second compound 94.9 pM) [µM] | IC50 (second compound 0.0003 µM) [µM] | IC50 (second compound 0.000949 µM) [µM] | IC50 (second compound 0.003 µM) [µM] | viability, T/C [3] [%] | viability, T/C [4] [%] | viability, T/C [5] [%] | viability, T/C [6] [%] | viability, T/C [9] [%] | viability, T/C [10] [%] | viability, T/C [11] [%] | viability, T/C [12] [%] | viability, T/C [15] [%] | viability, T/C [16] [%] | viability, T/C [17] [%] | viability, T/C [18] [%] | viability, T/C [21] [%] | viability, T/C [22] [%] | viability, T/C [23] [%] | also measured
CNCc1ccc(-c2cc(-c3nc(-c4ccc(S(=O)(=O)C(C)C)cc4)cnc3N)on2)cc1 + COc1cc2c(cc1O)CCNC21CSC2c3c(OC(C)=O)c(C)c4c(c3C(COC1=O)N1C(O)C3Cc5cc(C)c(OC)c(O)c5C(C21)N3C)OCO4 | 0.161 | 0.131 | < 0.00949 | < 0.00949 | < 0.00949 | 85.1 | 8.53 | 2.32 | 0.13 | 68.1 | 3.99 | 1.51 | 0.15 | 16.4 | 1.69 | 0.79 | 0.15 | 0.27 | 0.35 | 0.13 | viability, T/C [1]: 108%; viability, T/C [2]: 113%; viability, T/C [7]: 96.3%; viability, T/C [8]: 103%; viability, T/C [13]: 43.7%; viability, T/C [14]: 37%; viability, T/C [19]: 0.41%; viability, T/C [20]: 0.41%; viability, T/C [24]: 0.17%; viability, T/C [25]: 0.26%; viability, T/C [26]: 0.28%; viability, T/C [27]: 0.27%; viability, T/C [28]: 0.22%; viability, T/C [29]: 0.2%; viability, T/C [30]: 0.27%
Cc1sc2c(c1C)C(c1ccc(Cl)cc1)=NC(CC(=O)Nc1ccc(O)cc1)c1nnc(C)n1-2 (stereo not given) + COc1cc2c(cc1O)CCNC21CSC2c3c(OC(C)=O)c(C)c4c(c3C(COC1=O)N1C(O)C3Cc5cc(C)c(OC)c(O)c5C(C21)N3C)OCO4 | 0.0694 | 0.0677 | 0.0112 | < 0.00949 | < 0.00949 | 46 | 14.2 | 1.75 | 1.2 | 40.3 | 5.16 | 2.11 | 0.76 | 17.1 | 3.14 | 0.36 | 0.19 | 0.1 | 0.04 | 0.04 | viability, T/C [1]: 98.3%; viability, T/C [2]: 69.6%; viability, T/C [7]: 94.7%; viability, T/C [8]: 76.6%; viability, T/C [13]: 52.1%; viability, T/C [14]: 37.9%; viability, T/C [19]: 0.26%; viability, T/C [20]: 0.2%; viability, T/C [24]: 0.14%; viability, T/C [25]: 0.25%; viability, T/C [26]: 0.27%; viability, T/C [27]: 0.18%; viability, T/C [28]: 0.17%; viability, T/C [29]: 0.18%; viability, T/C [30]: 0.29%
Cn1ncnc1[C@H]1c2n[nH]c(=O)c3cc(F)cc(c23)N[C@@H]1c1ccc(F)cc1 + COc1cc2c(cc1O)CCNC21CSC2c3c(OC(C)=O)c(C)c4c(c3C(COC1=O)N1C(O)C3Cc5cc(C)c(OC)c(O)c5C(C21)N3C)OCO4 | 0.0125 | < 0.00949 | < 0.00949 | < 0.00949 | < 0.00949 | 19.6 | 13.2 | 6.87 | 1.96 | 14.8 | 9.34 | 4.06 | 1.23 | 3.81 | 4.9 | 1.34 | 0.77 | 0.27 | 0.14 | 0.13 | viability, T/C [1]: 56.7%; viability, T/C [2]: 30.3%; viability, T/C [7]: 42.5%; viability, T/C [8]: 20%; viability, T/C [13]: 25.2%; viability, T/C [14]: 6.95%; viability, T/C [19]: 0.45%; viability, T/C [20]: 0.42%; viability, T/C [24]: 0.22%; viability, T/C [25]: 0.34%; viability, T/C [26]: 0.37%; viability, T/C [27]: 0.33%; viability, T/C [28]: 0.35%; viability, T/C [29]: 0.3%; viability, T/C [30]: 0.36%
O=C(c1cc(Cc2n[nH]c(=O)c3ccccc23)ccc1F)N1CCN(C(=O)C2CC2)CC1 + COc1cc2c(cc1O)CCNC21CSC2c3c(OC(C)=O)c(C)c4c(c3C(COC1=O)N1C(O)C3Cc5cc(C)c(OC)c(O)c5C(C21)N3C)OCO4 | 2.11 | 1.42 | < 0.0949 | < 0.0949 | < 0.0949 | 87.2 | 93.6 | 67.9 | 43.4 | 83.1 | 79.2 | 56.2 | 36.3 | 32.6 | 35.5 | 22.8 | 7.06 | 0.47 | 0.29 | 0.17 | viability, T/C (second compound 30 pM, first compound 9.49 µM): 10.1%; viability, T/C (second compound 30 pM, first compound 30 µM): 6.76%; viability, T/C (second compound 94.9 pM, first compound 9.49 µM): 5.46%; viability, T/C (second compound 94.9 pM, first compound 30 µM): 4.13%; viability, T/C (second compound 0.0003 µM, first compound 9.49 µM): 1.54%; viability, T/C (second compound 0.0003 µM, first compound 30 µM): 1.07%; viability, T/C [24]: 0.09%; viability, T/C (second compound 0.000949 µM, first compound 9.49 µM): 0.04%; viability, T/C (second compound 0.000949 µM, first compound 30 µM): 0.16%; viability, T/C [27]: 0.3%; viability, T/C [28]: 0.32%; viability, T/C [29]: 0.26%; viability, T/C [30]: 0.14%; viability, T/C (second compound 0.003 µM, first compound 9.49 µM): 0.15%; viability, T/C (second compound 0.003 µM, first compound 30 µM): 0.3%
